Measured values from US8957238B2, “Process for preparing malathion for pharmaceutical use” (priority 2005, dated 2015).

Test: Storage stability of dry pharmaceutical grade malathion, HPLC (Example 18)
Assay type: physicochemical
Procedure: Purity was determined using a high performance liquid chromatography (HPLC) instrument with a variable wavelength detector.
Isomalathion content was determined using a high performance liquid chromatography (HPLC) instrument with a variable wavelength detector.
Four (4) samples of Dry Pharmaceutical Grade Malathion from Example 16, each weighing about 3-3.5 grams, were placed in separate clear glass bottles closed by a cap coated with polytetrafluoroethylene (PTFE). Each bottle was then inserted into a separate black polyethylene (PE) bag, which was tightly closed with a strip fastener. Each bag was then placed in a separate carton box.
The four (4) samples were stored for three (3) months under the following conditions: • Sample One: 40° C.±2° C. and 75%±5% relative humidity, • Sample Two: 30° C.±2° C. and 60%±5% relative humidity, • Sample Three: 25° C.±2° C. and 60%±5% relative humidity, and • Sample Four: 5° C.±3° C. and ambient relative humidity
The purity of each sample was determined after storage for one (1), two (2), and three (3) months using HPLC as set forth above (See Methodology and Protocols: End-of-Process Determination of Assay, Purity, and Impurities Other Than Isomalathion, End-of-Process Determination of Isomalathion).

[1] = Storage at 5° C. ± 3° C. and ambient relative humidity
[2] = Storage at 25° C. ± 2° C. and 60% ± 5% relative humidity
[3] = Storage at 30° C. ± 2° C. and 60% ± 5% relative humidity
[4] = Storage at 40° C. ± 2° C. and 75% ± 5% relative humidity

CCOC(=O)CC(SP(=S)(OC)OC)C(=O)OCC (stereo not shown) [[(dimethoxyphosphinothioyl)thio]butanedioic acid diethyl ester]
Diethyl fumarate Quantity After 1 Month [1]: <0.01 (LOD) % w/w | Diethyl fumarate Quantity After 2 Months [1]: <0.01 (LOD) % w/w | Diethyl fumarate Quantity After 3 Months [1]: <0.01 (LOD) % w/w | Dimethyl malathion Quantity After 1 Month [1]: <0.02 (LOD) % w/w | Dimethyl malathion Quantity After 2 Months [1]: <0.02 (LOD) % w/w | Dimethyl malathion Quantity After 3 Months [1]: <0.02 (LOD) % w/w | Isomalathion Quantity After 1 Month [1]: <0.02 (LOD) % w/w | Isomalathion Quantity After 2 Months [1]: <0.03 (LOQ) % w/w | Isomalathion Quantity After 3 Months [1]: <0.03 (LOQ) % w/w | Malaoxon Quantity After 1 Month [1]: <0.05 (LOD) % w/w | Malaoxon Quantity After 2 Months [1]: <0.05 (LOD) % w/w | Malaoxon Quantity After 3 Months [1]: <0.05 (LOD) % w/w | MeOOSPO Quantity After 1 Month [1]: <0.04 (LOD) % w/w | MeOOSPO Quantity After 2 Months [1]: <0.04 (LOD) % w/w | MeOOSPO Quantity After 3 Months [1]: <0.04 (LOD) % w/w | MeOOSPS Quantity After 1 Month [1]: 0.1 % w/w | MeOOSPS Quantity After 2 Months [1]: 0.1 % w/w | MeOOSPS Quantity After 3 Months [1]: 0.1 % w/w | MeOSSPO Quantity After 1 Month [1]: <0.02 (LOD) % w/w | MeOSSPO Quantity After 2 Months [1]: <0.02 (LOD) % w/w | MeOSSPO Quantity After 3 Months [1]: <0.02 (LOD) % w/w | Methyl malathion Quantity After 1 Month [1]: 0.05 % w/w | Methyl malathion Quantity After 2 Months [1]: 0.06 % w/w | Methyl malathion Quantity After 3 Months [1]: 0.06 % w/w | O,O-Me, Et Malathion analog Quantity After 1 Month [1]: 0.07 % w/w | O,O-Me, Et Malathion analog Quantity After 2 Months [1]: 0.07 % w/w | O,O-Me, Et Malathion analog Quantity After 3 Months [1]: 0.07 % w/w | Tetraethyl dithiodisuccinate Quantity After 1 Month [1]: 0.06 % w/w | Tetraethyl dithiodisuccinate Quantity After 2 Months [1]: 0.06 % w/w | Tetraethyl dithiodisuccinate Quantity After 3 Months [1]: 0.06 % w/w | Unknown (RRT = 0.38) Quantity After 1 Month [1]: 0.04 % w/w | Unknown (RRT = 0.38) Quantity After 2 Months [1]: 0.04 % w/w | Unknown (RRT = 0.38) Quantity After 3 Months [1]: 0.04 % w/w | Diethyl fumarate Quantity After 1 Month [2]: <0.01 (LOD) % w/w | Diethyl fumarate Quantity After 2 Months [2]: <0.01 (LOD) % w/w | Diethyl fumarate Quantity After 3 Months [2]: <0.01 (LOD) % w/w | Dimethyl malathion Quantity After 1 Month [2]: <0.02 (LOD) % w/w | Dimethyl malathion Quantity After 2 Months [2]: <0.02 (LOD) % w/w | Dimethyl malathion Quantity After 3 Months [2]: <0.02 (LOD) % w/w | Isomalathion Quantity After 1 Month [2]: <0.03 (LOQ) % w/w | Isomalathion Quantity After 2 Months [2]: <0.02 (LOD) % w/w | Isomalathion Quantity After 3 Months [2]: 0.04 % w/w | Malaoxon Quantity After 1 Month [2]: <0.05 (LOD) % w/w | Malaoxon Quantity After 2 Months [2]: <0.05 (LOD) % w/w | Malaoxon Quantity After 3 Months [2]: <0.05 (LOD) % w/w | MeOOSPO Quantity After 1 Month [2]: <0.04 (LOD) % w/w | MeOOSPO Quantity After 2 Months [2]: <0.04 (LOD) % w/w | MeOOSPO Quantity After 3 Months [2]: <0.04 (LOD) % w/w | MeOOSPS Quantity After 1 Month [2]: 0.1 % w/w | MeOOSPS Quantity After 2 Months [2]: 0.1 % w/w | MeOOSPS Quantity After 3 Months [2]: 0.1 % w/w | MeOSSPO Quantity After 1 Month [2]: <0.02 (LOD) % w/w | MeOSSPO Quantity After 2 Months [2]: <0.02 (LOD) % w/w | MeOSSPO Quantity After 3 Months [2]: <0.02 (LOD) % w/w | Methyl malathion Quantity After 1 Month [2]: 0.05 % w/w | Methyl malathion Quantity After 2 Months [2]: 0.05 % w/w | Methyl malathion Quantity After 3 Months [2]: 0.06 % w/w | O,O-Me, Et Malathion analog Quantity After 1 Month [2]: 0.08 % w/w | O,O-Me, Et Malathion analog Quantity After 2 Months [2]: 0.07 % w/w | O,O-Me, Et Malathion analog Quantity After 3 Months [2]: 0.07 % w/w | Tetraethyl dithiodisuccinate Quantity After 1 Month [2]: 0.06 % w/w | Tetraethyl dithiodisuccinate Quantity After 2 Months [2]: 0.06 % w/w | Tetraethyl dithiodisuccinate Quantity After 3 Months [2]: 0.06 % w/w | Unknown (RRT = 0.27) Quantity After 1 Month [2]: <0.02 (LOD) % w/w | Unknown (RRT = 0.27) Quantity After 2 Months [2]: <0.02 (LOD) % w/w | Unknown (RRT = 0.27) Quantity After 3 Months [2]: 0.06 % w/w | Unknown (RRT = 0.38) Quantity After 1 Month [2]: 0.04 % w/w | Unknown (RRT = 0.38) Quantity After 2 Months [2]: 0.04 % w/w | Unknown (RRT = 0.38) Quantity After 3 Months [2]: 0.04 % w/w | Diethyl fumarate Quantity After 1 Month [3]: <0.01 (LOD) % w/w | Diethyl fumarate Quantity After 2 Months [3]: <0.01 (LOD) % w/w | Diethyl fumarate Quantity After 3 Months [3]: <0.01 (LOD) % w/w | Dimethyl malathion Quantity After 1 Month [3]: <0.02 (LOD) % w/w | Dimethyl malathion Quantity After 2 Months [3]: <0.02 (LOD) % w/w | Dimethyl malathion Quantity After 3 Months [3]: <0.02 (LOD) % w/w | Isomalathion Quantity After 1 Month [3]: 0.03 % w/w | Isomalathion Quantity After 2 Months [3]: 0.04 % w/w | Isomalathion Quantity After 3 Months [3]: 0.06 % w/w | Malaoxon Quantity After 1 Month [3]: <0.05 (LOD) % w/w | Malaoxon Quantity After 2 Months [3]: <0.05 (LOD) % w/w | Malaoxon Quantity After 3 Months [3]: <0.05 (LOD) % w/w | MeOOSPO Quantity After 1 Month [3]: <0.04 (LOD) % w/w | MeOOSPO Quantity After 2 Months [3]: <0.04 (LOD) % w/w | MeOOSPO Quantity After 3 Months [3]: <0.04 (LOD) % w/w | MeOOSPS Quantity After 1 Month [3]: 0.1 % w/w | MeOOSPS Quantity After 2 Months [3]: 0.1 % w/w | MeOOSPS Quantity After 3 Months [3]: 0.1 % w/w | MeOSSPO Quantity After 1 Month [3]: <0.02 (LOD) % w/w | MeOSSPO Quantity After 2 Months [3]: <0.02 (LOD) % w/w | MeOSSPO Quantity After 3 Months [3]: <0.02 (LOD) % w/w | Methyl malathion Quantity After 1 Month [3]: 0.05 % w/w | Methyl malathion Quantity After 2 Months [3]: 0.06 % w/w | Methyl malathion Quantity After 3 Months [3]: 0.06 % w/w | O,O-Me, Et Malathion analog Quantity After 1 Month [3]: 0.08 % w/w | O,O-Me, Et Malathion analog Quantity After 2 Months [3]: 0.08 % w/w | O,O-Me, Et Malathion analog Quantity After 3 Months [3]: 0.07 % w/w | Tetraethyl dithiodisuccinate Quantity After 1 Month [3]: 0.06 % w/w | Tetraethyl dithiodisuccinate Quantity After 2 Months [3]: 0.05 % w/w | Tetraethyl dithiodisuccinate Quantity After 3 Months [3]: 0.06 % w/w | Unknown (RRT = 0.06) Quantity After 1 Month [3]: <0.02 (LOD) % w/w | Unknown (RRT = 0.06) Quantity After 2 Months [3]: <0.02 (LOD) % w/w | Unknown (RRT = 0.06) Quantity After 3 Months [3]: 0.04 % w/w | Unknown (RRT = 0.27) Quantity After 1 Month [3]: <0.02 (LOD) % w/w | Unknown (RRT = 0.27) Quantity After 2 Months [3]: 0.07 % w/w | Unknown (RRT = 0.27) Quantity After 3 Months [3]: 0.15 % w/w | Unknown (RRT = 0.38) Quantity After 1 Month [3]: 0.04 % w/w | Unknown (RRT = 0.38) Quantity After 2 Months [3]: 0.04 % w/w | Unknown (RRT = 0.38) Quantity After 3 Months [3]: 0.04 % w/w | Diethyl fumarate Quantity After 1 Month [4]: <0.01 (LOD) % w/w | Diethyl fumarate Quantity After 2 Months [4]: <0.01 (LOD) % w/w | Diethyl fumarate Quantity After 3 Months [4]: <0.02 (LOQ) % w/w | Dimethyl malathion Quantity After 1 Month [4]: <0.02 (LOD) % w/w | Dimethyl malathion Quantity After 2 Months [4]: <0.02 (LOD) % w/w | Dimethyl malathion Quantity After 3 Months [4]: <0.02 (LOD) % w/w | Isomalathion Quantity After 1 Month [4]: 0.06 % w/w | Isomalathion Quantity After 2 Months [4]: 0.1 % w/w | Isomalathion Quantity After 3 Months [4]: 0.1 % w/w | Malaoxon Quantity After 1 Month [4]: <0.05 (LOD) % w/w | Malaoxon Quantity After 2 Months [4]: <0.05 (LOD) % w/w | Malaoxon Quantity After 3 Months [4]: <0.05 (LOD) % w/w | MeOOSPO Quantity After 1 Month [4]: <0.04 (LOD) % w/w | MeOOSPO Quantity After 2 Months [4]: <0.04 (LOD) % w/w | MeOOSPO Quantity After 3 Months [4]: 0.05 % w/w | MeOOSPS Quantity After 1 Month [4]: 0.1 % w/w | MeOOSPS Quantity After 2 Months [4]: 0.2 % w/w | MeOOSPS Quantity After 3 Months [4]: 0.2 % w/w | MeOSSPO Quantity After 1 Month [4]: <0.02 (LOD) % w/w | MeOSSPO Quantity After 2 Months [4]: <0.02 (LOD) % w/w | MeOSSPO Quantity After 3 Months [4]: <0.02 (LOD) % w/w | Methyl malathion Quantity After 1 Month [4]: 0.06 % w/w | Methyl malathion Quantity After 2 Months [4]: 0.06 % w/w | Methyl malathion Quantity After 3 Months [4]: 0.06 % w/w | O,O-Me, Et Malathion analog Quantity After 1 Month [4]: 0.08 % w/w | O,O-Me, Et Malathion analog Quantity After 2 Months [4]: 0.07 % w/w | O,O-Me, Et Malathion analog Quantity After 3 Months [4]: 0.07 % w/w | Tetraethyl dithiodisuccinate Quantity After 1 Month [4]: 0.06 % w/w | Tetraethyl dithiodisuccinate Quantity After 2 Months [4]: 0.05 % w/w | Tetraethyl dithiodisuccinate Quantity After 3 Months [4]: 0.07 % w/w | Unknown (RRT = 0.06) Quantity After 1 Month [4]: <0.02 (LOD) % w/w | Unknown (RRT = 0.06) Quantity After 2 Months [4]: <0.02 (LOD) % w/w | Unknown (RRT = 0.06) Quantity After 3 Months [4]: 0.04 % w/w | Unknown (RRT = 0.25) Quantity After 1 Month [4]: <0.02 (LOD) % w/w | Unknown (RRT = 0.25) Quantity After 2 Months [4]: 0.06 % w/w | Unknown (RRT = 0.25) Quantity After 3 Months [4]: 0.12 % w/w | Unknown (RRT = 0.27) Quantity After 1 Month [4]: 0.10 % w/w | Unknown (RRT = 0.27) Quantity After 2 Months [4]: 0.38 % w/w | Unknown (RRT = 0.27) Quantity After 3 Months [4]: 0.76 % w/w | Unknown (RRT = 0.38) Quantity After 1 Month [4]: 0.04 % w/w | Unknown (RRT = 0.38) Quantity After 2 Months [4]: 0.04 % w/w | Unknown (RRT = 0.38) Quantity After 3 Months [4]: 0.04 % w/w | Storage stability (conclusion in words) (three (3) months at 5, 25, 30 and 40° C. conditions): storage stable
